The values that follow come from ChEMBL document CHEMBL4354818, “Advances in Discovering Deubiquitinating Enzyme (DUB) Inhibitors” (J Med Chem, 2020).

Assay [1] concerns the target Ubiquitin carboxyl-terminal hydrolase 7 (Homo sapiens, UniProt Q93009). Description: Inhibition of USP7 in human U2OS using Ub-TAMRA substrate by Ub-Rhodamine fluorescent intensity assay. The format is cell-based.
For assay [2], the target named is T1, Ubiquitin carboxyl-terminal hydrolase 4 (Homo sapiens, UniProt Q13107).
T1 sequence (Q13107 whole entry): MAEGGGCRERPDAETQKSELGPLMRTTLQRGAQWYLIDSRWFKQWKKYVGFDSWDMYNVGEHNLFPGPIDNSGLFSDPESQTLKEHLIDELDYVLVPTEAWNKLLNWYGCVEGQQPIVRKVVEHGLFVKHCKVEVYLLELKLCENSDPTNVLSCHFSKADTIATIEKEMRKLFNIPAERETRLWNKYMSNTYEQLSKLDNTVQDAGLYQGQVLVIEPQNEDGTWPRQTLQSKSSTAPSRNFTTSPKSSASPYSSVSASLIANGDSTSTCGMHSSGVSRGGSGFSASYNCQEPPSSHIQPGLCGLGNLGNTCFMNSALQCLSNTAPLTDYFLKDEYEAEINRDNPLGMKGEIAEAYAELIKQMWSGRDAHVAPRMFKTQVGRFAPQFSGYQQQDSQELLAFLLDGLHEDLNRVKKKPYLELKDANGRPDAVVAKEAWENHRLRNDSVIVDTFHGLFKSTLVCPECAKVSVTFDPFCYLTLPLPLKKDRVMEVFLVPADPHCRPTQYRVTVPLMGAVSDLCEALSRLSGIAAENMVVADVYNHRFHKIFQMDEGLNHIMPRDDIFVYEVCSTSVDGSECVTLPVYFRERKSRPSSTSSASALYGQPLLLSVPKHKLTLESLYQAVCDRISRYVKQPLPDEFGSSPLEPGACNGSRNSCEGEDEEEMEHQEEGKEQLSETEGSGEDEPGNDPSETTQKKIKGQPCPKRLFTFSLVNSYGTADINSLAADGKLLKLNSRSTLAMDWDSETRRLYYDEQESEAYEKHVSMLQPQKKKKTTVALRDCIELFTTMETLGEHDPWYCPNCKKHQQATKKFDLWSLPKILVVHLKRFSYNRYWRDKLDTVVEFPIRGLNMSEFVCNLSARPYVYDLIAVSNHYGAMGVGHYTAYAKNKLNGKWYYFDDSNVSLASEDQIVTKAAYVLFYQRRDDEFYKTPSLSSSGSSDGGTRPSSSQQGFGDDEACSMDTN
As to the kind of experiment: Inhibition of USP4 in human U2OS using Ub-TAMRA substrate by Ub-Rhodamine fluorescent intensity assay. It counts as cell-based.

The next assay has as its system HCT-116. Description: Cytotoxicity in human HCT116 cells assessed as reduction in cell viability incubated for 72 hrs by FMCA analysis. It counts as functional, cell-based. Conditions: HCT-116, 72 h.
The nature of assay [3]: Inhibition of 26S proteasome (unknown origin) incubated for 2 hrs by proteasome Ub-Rho cleavage assay. More on the design: species or system Homo sapiens.
For a further assay, the target named is T2, STAM-binding protein (Homo sapiens, UniProt O95630).
T2 sequence (O95630 whole entry): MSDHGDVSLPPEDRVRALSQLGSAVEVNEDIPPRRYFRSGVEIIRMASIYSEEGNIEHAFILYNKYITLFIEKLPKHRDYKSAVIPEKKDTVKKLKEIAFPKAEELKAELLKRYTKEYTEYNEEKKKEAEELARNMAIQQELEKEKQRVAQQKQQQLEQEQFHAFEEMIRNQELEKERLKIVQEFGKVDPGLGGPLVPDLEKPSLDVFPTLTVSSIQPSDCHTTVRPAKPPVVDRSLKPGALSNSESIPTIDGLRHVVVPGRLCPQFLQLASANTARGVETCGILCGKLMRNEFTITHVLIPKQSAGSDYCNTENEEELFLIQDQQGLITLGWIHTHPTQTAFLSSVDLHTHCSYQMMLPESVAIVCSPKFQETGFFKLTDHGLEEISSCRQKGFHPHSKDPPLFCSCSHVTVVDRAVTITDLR
As to the kind of experiment: Inhibition of human STAMBP expressed in Sf21 cells pre-incubated for 20 mins before Ubiquitinated NALP7 substrate addition and measured after 1 hr by immunoblotting analysis. A general note: In western blotting, separated proteins are transferred to a membrane and probed.

Chain of Ubiquitin carboxyl-terminal hydrolase 7 (Q93009 whole entry): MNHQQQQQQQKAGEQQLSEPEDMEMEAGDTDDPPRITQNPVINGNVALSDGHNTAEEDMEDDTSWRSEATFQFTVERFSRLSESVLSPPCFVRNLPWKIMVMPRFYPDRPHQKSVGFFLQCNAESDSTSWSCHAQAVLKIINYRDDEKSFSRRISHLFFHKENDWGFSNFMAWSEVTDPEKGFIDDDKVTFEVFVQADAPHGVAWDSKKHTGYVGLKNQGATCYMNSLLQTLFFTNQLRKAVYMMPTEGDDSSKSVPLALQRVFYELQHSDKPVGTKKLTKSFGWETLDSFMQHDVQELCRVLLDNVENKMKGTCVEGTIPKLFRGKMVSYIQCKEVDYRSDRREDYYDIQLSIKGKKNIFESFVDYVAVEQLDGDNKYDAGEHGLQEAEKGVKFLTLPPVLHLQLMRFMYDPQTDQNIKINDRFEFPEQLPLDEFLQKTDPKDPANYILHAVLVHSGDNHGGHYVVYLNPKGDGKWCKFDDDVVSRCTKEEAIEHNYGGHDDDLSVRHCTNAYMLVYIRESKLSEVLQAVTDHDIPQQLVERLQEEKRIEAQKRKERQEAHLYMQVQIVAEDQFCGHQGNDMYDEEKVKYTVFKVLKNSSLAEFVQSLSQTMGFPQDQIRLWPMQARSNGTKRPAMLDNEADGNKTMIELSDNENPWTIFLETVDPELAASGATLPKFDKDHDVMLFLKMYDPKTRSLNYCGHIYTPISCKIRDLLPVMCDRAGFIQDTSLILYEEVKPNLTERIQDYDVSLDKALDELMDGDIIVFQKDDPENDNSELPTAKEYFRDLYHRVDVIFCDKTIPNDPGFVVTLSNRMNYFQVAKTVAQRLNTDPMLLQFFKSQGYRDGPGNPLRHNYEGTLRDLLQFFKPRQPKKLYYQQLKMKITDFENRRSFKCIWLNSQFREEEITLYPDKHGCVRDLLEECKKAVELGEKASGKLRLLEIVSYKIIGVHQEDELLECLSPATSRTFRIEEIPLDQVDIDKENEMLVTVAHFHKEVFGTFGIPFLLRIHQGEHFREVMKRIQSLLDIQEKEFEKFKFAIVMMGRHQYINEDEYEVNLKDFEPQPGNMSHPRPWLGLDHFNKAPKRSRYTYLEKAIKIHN

As for `C#Cc1ccc(CNC(=O)c2cc(C(=O)CCl)cn2C)cc1`, the IC50 (commonly the concentration needed to halve the response being measured) in assay [1] was determined as 44 µM; in assay [2], 0.05 µM.

On to `C=CC(=O)N1CC/C(=C\c2ccc(F)c([N+](=O)[O-])c2)C(=O)/C(=C/c2ccc(F)c([N+](=O)[O-])c2)C1`, for which the values for the EC50 (in the assay on HCT-116; in assay [3]) were 0.58 µM and 6.4 µM, respectively.

For `O=C(CSc1nc2ccc(N3CCOCC3)cc2c(=O)n1CCc1ccccc1)NCc1ccco1`, the IC50 at STAM-binding protein was determined as 0.33 µM.

Take `C=CC(=O)N1C/C(=C\c2ccc([N+](=O)[O-])cc2)C(=O)/C(=C/c2ccc([N+](=O)[O-])cc2)C1`: the half-maximal effective concentration (EC50) (usually the concentration that produces a half-maximal response) in the assay with HCT-116 came out at 1.05 µM; in assay [3] it was 6.5 µM.
